Earlier results on 3 compounds are cited in patent US8697043B1, “Odor suppression of volatile organic analgesic compounds and method of use” (Chattem, Inc., priority 2013, dated 2014).

The conditions of data set [1]: at 25° C.

Take `CC12CCC(CC1=O)C2(C)C` (centres unmarked) [camphor]: the Solubility in water result is listed as “neither menthol nor camphor are significantly soluble in water”. For the same compound, in data set [1], the Vapor pressure is reported as 86.7 kPa. Take `CC1CCC(C(C)C)C(O)C1` (centres unmarked) [Menthol]: the Solubility in water result is on record as “neither menthol nor camphor are significantly soluble in water”. In data set [1], the Vapor pressure was 8.5 kPa. In the case of `CCO` [ethanol], the Vapor pressure in data set [1] is on record as 5.9 kPa.
